PMC5656322, “BAK1 is involved in AtRALF1-induced inhibition of root cell expansion” (PLoS Genetics, 2017)
Where no end group is shown, it is not given here.

Columns and labels:
[1] = tested on: intact Arabidopsis seedlings; experiment: Binding assay with acridinium-labeled AtRALF1, intact seedlings; design: species or system Arabidopsis thaliana; settings: for competition of acriAtRALF1 binding: 10-fold excess of unlabeled peptide
Protocol: (A) Whole seedlings (5 days old) were treated for 15 min with acriAtRALF1 (acriR1), acriR1 and an excess of unlabeled AtRALF34 (R34), RALF1(9–49) [(R-9-49)], or AtRALF1 (R1), as indicated. The values are the mean ± SD of two measurements (5 seedlings each). (B) Microsomal fractions from wild-type and bak1 mutants were incubated for 15 min with acriAtRALF1 (acriR1), with acriR1 and an excess of unlabeled RALF1(9–49) [(R-9-49)], or with AtRALF1 (R1), as indicated. The values are the mean ± SD of two measurements. The proportions of labeled: unlabeled proteins are shown in parentheses. Single and triple asterisks indicate P < 0.1 and P < 0.01 (Student’s t test).
Arabidopsis seedlings were grown for 5 days on vertical plates. Roots were homogenized in extraction buffer [300 mM sucrose, 100 mM Tris-HCl pH 7.5, 25 mM EDTA, 25 mM NaF, 1 mM Na2MoO4, 1 mM PMSF and protease inhibitor cocktail (Roche), adjusted to pH 6.2], and the homogenate was spun at 2,000 x g for 10 min at 4 °C. The supernatant was recovered and centrifuged at 100,000 x g for 50 min at 4 °C to precipitate the microsomal pellet. The pellet was resuspended in the extraction buffer plus 0.5% Triton-X. Seedlings or microsomal fractions were placed in 200 μl of medium and incubated with 7 nM acridinium-labeled peptide (acriAtRALF1 or acriAtRALF34) and different concentrations of AtRALF1, AtRALF34 or RALF1(9–49) for 15–20 min at 4 °C on a shaker. After incubation, the seedlings or microsomal fractions were washed three times with the same medium. Unless indicated otherwise, five entire seedlings and approximately 10 ng of microsomal fractions were used per treatment. The resulting luminescence emissions from the acridinium were measured using a microplate reader (Biotec ELx 800) at 2 s after injecting 50 μl of a solution containing 20 mM H2O2 in 0.1 M NaOH. These experiments were repeated at least three times using independent biological replicates. Duplicates were used for each concentration or treatment. The data shown are from one representative experiment.
Supplementary file pgen.1007053.s017.pdf: S17 Fig Analyses of acridinium-labeled AtRALF1 (acriAtRALF1) and binding of acriAtRALF1 in bak1-4 and fer4 mutants. (A) The Ca^2+ mobilization assay comparing the acriAtRALF1 activity with the AtRALF1 peptide. A total of 20 time-points per treatment were measured over 160 sec and summed. The results are the means ± SD of two measurements. (B) acriAtRALF1 binding in whole seedlings and only in roots of Arabidopsis. The roots were excised just before measurements. Ctr, seedlings treated with unlabeled AtRALF1. (C) Whole seedlings (5 days old) were treated for 20 min with acriAtRALF1 (acriR1), acriR1 and an excess of unlabeled AtRALF1 (R1), as indicated. The values are the mean ± SD of three measurements (5 seedlings each). The proportions of labeled: unlabeled proteins are shown in parentheses. Triple asterisks indicates P < 0.001 (Student’s t test). (PDF) Click here for additional data file.
Supplementary file pgen.1007053.s018.pdf: S18 Fig Binding of acridinium-labeled AtRALF1 and AtRALF34 to intact Arabidopsis seedlings. (A) bak7 seedlings (5 days old) were treated for 15 min with acriAtRALF1 (acriR1), acriR1 and an excess of unlabeled AtRALF1 (R1), as indicated. (B) bak1 seedlings (5 days old) were treated for 15 min with acriAtRALF34 (acriR34), acriR34 and an excess of unlabeled AtRALF34 (R34) or AtRALF1 (R1), as indicated. The proportions of labeled: unlabeled proteins are shown in parentheses. The values are the mean ± SD of two measurements (5 seedlings each). (PDF) Click here for additional data file.

[2] = tested on: Arabidopsis seedlings, primary root; experiment: Root growth inhibition assay, liquid medium, 24-well plates; format: in vivo, Arabidopsis thaliana; settings: 10 μM, 2 days
Protocol: (A) and (B) Arabidopsis seedlings (2 days old) were treated with 10 μM AtRALF1 or water (H20) for 2 days. The values are the mean ± SD of at least 25 seedlings. Triple asterisks indicate P < 0.01 (Student’s t test); ns, not significant. (C) Four-day-old seedlings were transferred to media containing different concentrations of AtRALF1, and the primary root length was measured after 8 days of treatment. The data represent the mean value ± SD of 30 seedlings. […] Representative Arabidopsis seedlings after 8 days of treatment with AtRALF1 are shown below. Seedlings were arranged on plates after the treatment for imaging. Scale bars, 1 cm. (D) Two-day-old seedlings were treated with 10 μM AtRALF1 or water for 2 days, and root cell length was measured after 2 days of treatment. Cells from the root endodermis in the differentiation zone were measured. The values are the mean ± SD of approximately 150 cells. Triple asterisks indicate P < 0.01 (Student’s t test); ns, not significant.
Aliquots of 1 ml of medium containing seeds were distributed into 24-well plates. The peptides (10 μM) were added after 2 days, and the root length was measured 2 days after treatment. To maximize root growth, the seeds were germinated in vertical plates. […] The root length was measured 8 days after treatment unless stated otherwise. Control plants were grown under identical conditions in a peptide-free medium. Quantitative data were obtained as previously described. The experiments were repeated at least 3 times using independent biological replicates with similar results. The data from one representative experiment are shown. For cell length measurements, AtRALF1 peptide (10 μM) was added after 2 days of germination, and the cell length was measured after 2 days of treatment. The cell wall was stained with a 1 mg ml^-1 propidium iodide solution (Sigma) in the dark for 15 min and washed twice with water. Cells of the endodermis of the root differentiation zone were imaged and measured using confocal microscopy (Olympus FV1000). Approximately 30 plants from each genetic background and at least 5 cells per root were measured. The wavelengths for excitation and emission were 555 and 655 nm, respectively. Image processing was completed using the Olympus FluoView software.
Arabidopsis seedlings (2-days-old) were treated with 10 μM AtRALF1 or water (H20) for 2 days. The values are the mean ± SD of at least 25 seedlings. Triple asterisks indicate P < 0.01 (Student’s t test); ns, not significant. (PDF) Click here for additional data file.
Supplementary file pgen.1007053.s002.pdf: S2 Fig Loss-of-function bak1 mutants are sensitive to the inhibitory activity of AtRALF23/34 on root growth. Arabidopsis seedlings (2-day-old) were treated with 10 μM RALF1(9–49), RALF1(I6A), AtRALF1, AtRALF23 and AtRALF34 or water (H20) for 2 days. The values are the mean ± SD of at least 20 seedlings. […] (PDF) Click here for additional data file.

Substance | reduction of acriAtRALF1 binding ([1]; bak1-1, 10-fold excess of AtRALF1) | acriAtRALF1 binding reduced to ([1]; bak1-1, 100- or 500-fold excess of AtRALF1) [%] | reduction of acriAtRALF1 binding ([1]; bak1-3, 10-fold excess of AtRALF1) [%] | acriAtRALF1 binding reduced to ([1]; bak1-3, 100- or 500-fold excess of AtRALF1) [%] | reduction of acriAtRALF1 binding ([1]; bak1-4, 10-fold excess of AtRALF1) [%] | acriAtRALF1 binding reduced to ([1]; bak1-4, 100- or 500-fold excess of AtRALF1) [%] | share of AtRALF1 binding due to BAK1 ([1]; intact roots) | reduction of acriAtRALF1 binding ([1]; wild-type seedlings, 10-fold excess of unlabeled AtRALF1) [%] | reduction of acriAtRALF1 binding ([1]; wild-type seedlings, 100-fold excess of AtRALF1, printed "up to") [%] | further reduction of acriAtRALF1 binding ([1]; wild-type seedlings, 500-fold excess of AtRALF1) | root growth inhibition ([2]; bak1-1 and bak1-3 mutants) | sensitivity to root growth inhibition ([2]; bak1-4 complemented with pBAK1:BAK1) | root growth inhibition ([2]; bri1-301, bsk3-2, sud1, bes1-D, bzr1-D, BRI OX, DWF4 OX lines) | sensitivity to root growth inhibition ([2]; loss-of-function bak1 mutants (bak1-4)) | root growth inhibition ([2]; serk1, serk2, serk4 (bak7), serk5 (bak8) mutants) | competition of acriAtRALF1 binding ([1]; bak1 mutants) | competition of acriAtRALF1 binding ([1]; wild-type seedlings, 7 nM acriAtRALF1, 15 min, 4 °C) | activity of negative control peptides on root growth [2]
AtRALF1: root-specific RALF isoform in Arabidopsis; recombinant peptide hormone produced in E. coli (ATTKYISYQSLKRNSVPCSRRGASYYNCQNGAQANPYSRGCSKIARCRS; ends and bridges not checked; cysteine pairing not given here) | approximately 32% | 54 | ~35 | 63 | ~33 | 61 | approximately 30% | 24 | 59 | No further reduction was observed | exhibited no effect | recovered the sensitivity to the inhibitory effect of AtRALF1 treatment | exhibited root growth inhibition by AtRALF1 | insensitive to the inhibitory activity of AtRALF1 on root growth | inhibited the root growth | – | – | –
RALF1(9–49): inactive AtRALF1 peptide which has a deletion of the first 8 amino acids (QSLKRNSVPCSRRGASYYNCQNGAQANPYSRGCSKIARCRS; ends and bridges not checked; cysteine pairing not given here; UniProt Q9SRY3 80-120, looked up, fragment) | – | – | – | – | – | – | – | – | – | – | – | – | – | – | – | did not reduce the binding in the mutant backgrounds | could not be competed out | inactive
